What was measured:
Assay type in all cases: in vivo
H22 tumor cell = experiment: Tumor growth inhibition, H22 tumor in mice; details: 12 mg/kg i.p., four injections; 15th day after inoculation
Method: Cisplatin implant prepared according to Example 5 was used in this study. Ascites fluid was taken from d7 H22 passage mice under sterile conditions, and the ascites fluid was diluted with normal saline to prepare tumor cell suspension at a concentration of 1.0×10^7 cells/ml. Each mouse received a subcutaneous injection of 0.2 ml tumor cell suspension at the right armpit (number of inoculated cells: 2×10^6). The mice were randomized into 6 groups the next day after inoculation, cisplatin implant or excipient control was implanted near the tumor at the seventh day after inoculation. The positive control group received an intraperitoneal injection of cisplatin the next day after inoculation, and four injections in total at an interval of twice a week. The negative control group received an intraperitoneal injection of normal saline the next day after inoculation, and four injections in total at an interval of twice a week. The mice were sacrificed at the 15th day after inoculation, and the tumor mass were peeled and weighted. Tumor growth inhibition rate was calculated using the following equation: […]

SGC-7901 tumor = experiment: Tumor growth inhibition, SGC-7901 tumor in nude mice; details: 1.6 mg ip, four injections; 21st day after inoculation
Method: Fluorouracil implant prepared according to Example 2 were used in this study. SGC-7901 tumor tissues at vigorous growth stage were obtained and cut into pieces of about 1.5 mm^3. The tumor tissue pieces were inoculated subcutaneously to the right armpit of nude mice, under sterile conditions. The mice were randomized into 6 groups at the sixth day after inoculation. Three groups were treated with different doses of fluorouracil implant prepared according to Example 2. Another group was treated with excipient at the sixth day after noculation. The fluorouracil implant or excipient was implanted subcutaneously near the tumor. The positive group received four intraperitoneal injections of fluorouracil in total at an interval of twice a week. The negative control group received four intraperitoneal injections of normal saline in total at an interval of twice a week. The mice were sacrificed at the 21st day after inoculation, and the tumor mass were peeled and weighed. The tumor growth inhibition rate was calculated using the following equation: […]

[1] = tested on: Pancreatic cancer cell line PC3; experiment: Tumor size, pancreatic cancer PC3 in nude mice; details: Group B, i.v. 10 mg/kg
Method: Fluorouracil implant composition prepared according to Example 2 was tested for its efficacy on pancreatic cancer. Pancreatic cancer cell line PC3 was cultured and inoculated subcutaneously to 70 nude mice at the right armpit at the dose of 2×10^6 cells per inoculation. Tumor grew to the size of about 4 mm×4 mm×4 mm 4 weeks after the implant. 60 nude mice having tumors of similar sizes were selected and randomized into 5 groups with 12 mice in each group: Group A was administered intravenously through the angular vein with normal saline at the dose of 0.1 ml per mice; Group B was administered intravenously through the angular vein with 0.1 ml fluorouracil solution in normal saline at the dose of 10 mg/kg; Group C was implanted with blank matrix; Group D was implanted with fluorouracil implant composition into the pancreatic tumor mass at the dose of 4 mg/kg; and Group E was implanted with fluorouracil implant composition into the pancreatic tumor mass at the dose of 1 mg/kg. The size of the tumor mass was measured before and after treatment.

| SMILES | Tumor growth inhibition rate (%) (H22 tumor cell) | Tumor weight X ± SD (H22 tumor cell) [g] | Tumor growth inhibition rate (%) (SGC-7901 tumor) | Tumor weight X ± SD (SGC-7901 tumor) [g] | tumor size ([1]; 3rd day) [mm^3] | tumor size ([1]; 6th day) [mm^3] | tumor size ([1]; 10th day) [mm^3] | tumor size ([1]; 14th day) [mm^3] | tumor size ([1]; Before treatment) [mm^3] |
| --- | --- | --- | --- | --- | --- | --- | --- | --- | --- |
| N.N.[Cl][Pt][Cl] [cisplatin] | 19.68 | 2.98 ± 1.14 | – | – | – | – | – | – | – |
| O=c1[nH]cc(F)c(=O)[nH]1 [fluorouracil] | – | – | 75.76 | 0.71 ± 0.42 | 72.3 | 96.62 ± 20.5 | 107.3 ± 20.9 | 121.6 ± 14.3 | 61.5 ± 8.7 |
